The values that follow are results of earlier work, collected in patent publication US8007820B2, “Wide spectrum insecticide and miticide composition” (W. Neudorff GmbH KG, priority 2005, dated 2011).

For the data set the following is noted: as formulated material.

Turning to Spinosad, the shelf life result was “about three”.
